Test results taken from ChEMBL document CHEMBL3244076, “N,N'-(Phenylene)dioxamic acids and their esters as antiallergy agents” (1978).

Key:
Assay type in all cases: functional
Rattus norvegicus [1] = assay: Antiallergic activity in anti-egg albumin homocytotropic antibody-sensitized Sprague-Dawley rat assessed as inhibition of passive cutaneous anaphylaxis reaction at 50 mg/kg, po administered 120 mins prior to antigen egg albumin challenge
Rattus norvegicus [2] = assay: Antiallergic activity in anti-egg albumin homocytotropic antibody-sensitized Sprague-Dawley rat assessed as inhibition of passive cutaneous anaphylaxis reaction at 50 mg/kg, po administered 60 mins prior to antigen egg albumin challenge
Rattus norvegicus [3] = assay: Antiallergic activity in anti-egg albumin homocytotropic antibody-sensitized Sprague-Dawley rat assessed as time of peak action for inhibition of passive cutaneous anaphylaxis reaction at 50 mg/kg, po administered prior to antigen egg albumin challenge
Rattus norvegicus [4] = assay: Antiallergic activity in anti-egg albumin homocytotropic antibody-sensitized Sprague-Dawley rat assessed as inhibition of passive cutaneous anaphylaxis reaction at 50 mg/kg, po administered 5 mins prior to antigen egg albumin challenge
Rattus norvegicus [5] = assay: Antiallergic activity in anti-egg albumin homocytotropic antibody-sensitized Sprague-Dawley rat assessed as inhibition of passive cutaneous anaphylaxis reaction at 50 mg/kg, po administered 20 mins prior to antigen egg albumin challenge
Rattus norvegicus [6] = assay: Antiallergic activity in po dosed anti-egg albumin homocytotropic antibody-sensitized Sprague-Dawley rat assessed as lowest concentration required for >20% inhibition of passive cutaneous anaphylaxis reaction administered prior to antigen egg albumin challenge
Rattus norvegicus [7] = assay: Antiallergic activity in anti-egg albumin homocytotropic antibody-sensitized Sprague-Dawley rat assessed as inhibition of passive cutaneous anaphylaxis reaction at 10 mg/kg, po administered 20 mins prior to antigen egg albumin challenge
Rattus norvegicus [8] = assay: Antiallergic activity in anti-egg albumin homocytotropic antibody-sensitized Sprague-Dawley rat assessed as inhibition of passive cutaneous anaphylaxis reaction at 10 mg/kg, po administered 5 mins prior to antigen egg albumin challenge
Rattus norvegicus [9] = assay: Antiallergic activity in anti-egg albumin homocytotropic antibody-sensitized Sprague-Dawley rat assessed as inhibition of passive cutaneous anaphylaxis reaction at 10 mg/kg, po administered 60 mins prior to antigen egg albumin challenge
Rattus norvegicus [10] = assay: Antiallergic activity in iv dosed anti-egg albumin homocytotropic antibody-sensitized Sprague-Dawley rat assessed as inhibition of passive cutaneous anaphylaxis reaction administered at the time of antigen egg albumin challenge
Rattus norvegicus [11] = assay: Ratio of disodium cromoglycate ED50 to compound ED50 for antiallergic activity in iv dosed anti-egg albumin homocytotropic antibody-sensitized Sprague-Dawley rat by passive cutaneous anaphylaxis reaction analysis
Rattus norvegicus [12] = assay: Antiallergic activity in anti-egg albumin homocytotropic antibody-sensitized Sprague-Dawley rat assessed as inhibition of passive cutaneous anaphylaxis reaction at 0.001 mg/kg, iv administered at the time of antigen egg albumin challenge
Rattus norvegicus [13] = assay: Antiallergic activity in anti-egg albumin homocytotropic antibody-sensitized Sprague-Dawley rat assessed as inhibition of passive cutaneous anaphylaxis reaction at 0.01 mg/kg, iv administered at the time of antigen egg albumin challenge

CCOC(=O)C(=O)Nc1cccc(NC(=O)C(=O)OCC)c1
inhibition in vivo at 50 mg/kg (Rattus norvegicus [1]): 29%
inhibition in vivo at 50 mg/kg (Rattus norvegicus [2]): 14%
Time (Rattus norvegicus [3]): 20 min
inhibition in vivo at 50 mg/kg (Rattus norvegicus [4]): 3%
inhibition in vivo at 50 mg/kg (Rattus norvegicus [5]): 94%
LED (Rattus norvegicus [6]): 1 mg/kg

CCOC(=O)C(=O)Nc1ccc(C#N)c(NC(=O)C(=O)OCC)c1
inhibition in vivo at 10 mg/kg (Rattus norvegicus [7]): 19%
inhibition in vivo at 10 mg/kg (Rattus norvegicus [8]): 7%
inhibition in vivo at 10 mg/kg (Rattus norvegicus [9]): 19%

CCOC(=O)C(=O)Nc1cc(C#N)cc(NC(=O)C(=O)OCC)c1Cl [LODOXAMIDE ETHYL]
inhibition in vivo at 50 mg/kg (Rattus norvegicus [2]): 0%
Time (Rattus norvegicus [3]): 5 min
inhibition in vivo at 50 mg/kg (Rattus norvegicus [4]): 100%
inhibition in vivo at 50 mg/kg (Rattus norvegicus [5]): 31%
LED (Rattus norvegicus [6]): 0.1 mg/kg

O=C([O-])c1cc(=O)c2c(OCC(O)COc3cccc4oc(C(=O)[O-])cc(=O)c34)cccc2o1.[Na+].[Na+] [CROMOLYN SODIUM]
ED50 (Rattus norvegicus [10]): 2.5 mg/kg

N#Cc1cc(NC(=O)C(=O)O)c(Cl)c(NC(=O)C(=O)O)c1 [LODOXAMIDE]
Ratio ED50 (Rattus norvegicus [11]): 2500
inhibition in vivo at 0.001 mg/kg (Rattus norvegicus [12]): 50%
inhibition in vivo at 0.01 mg/kg (Rattus norvegicus [13]): 94%
